This is an account of results in publication PMC9667588, “Synthesis and bioactivities evaluation of quinazolin-4(3H)-one derivatives as α-glucosidase inhibitors” (BMC Chemistry, 2022).

“Also recorded” adds a separate entry of the source.

The target of one series is T1, α-glucosidase (Saccharomyces cerevisiae, UniProt P53341).
T1 sequence (P53341 whole entry): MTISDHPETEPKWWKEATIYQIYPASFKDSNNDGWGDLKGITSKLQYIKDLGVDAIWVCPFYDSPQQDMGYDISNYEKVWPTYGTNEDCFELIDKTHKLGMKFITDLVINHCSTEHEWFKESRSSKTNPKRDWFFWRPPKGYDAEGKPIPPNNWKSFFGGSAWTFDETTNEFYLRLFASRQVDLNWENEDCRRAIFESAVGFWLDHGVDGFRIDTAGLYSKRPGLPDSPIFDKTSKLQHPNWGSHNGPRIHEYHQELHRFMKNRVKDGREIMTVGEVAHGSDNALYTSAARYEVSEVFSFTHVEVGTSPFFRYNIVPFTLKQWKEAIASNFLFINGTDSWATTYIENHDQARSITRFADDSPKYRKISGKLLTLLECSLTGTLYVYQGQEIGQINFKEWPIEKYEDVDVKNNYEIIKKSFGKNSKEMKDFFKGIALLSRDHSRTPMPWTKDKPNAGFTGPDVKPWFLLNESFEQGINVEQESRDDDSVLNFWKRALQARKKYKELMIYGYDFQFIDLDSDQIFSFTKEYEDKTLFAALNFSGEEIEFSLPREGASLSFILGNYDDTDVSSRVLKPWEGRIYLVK
Assay: not given
The following applies: cited from earlier work.
`O=C(Cn1cc(COc2ccc(-c3nc4ccccc4c(=O)[nH]3)cc2)nn1)Nc1ccccc1` [C]: the type of inhibition result is on record as “competitive”.

For another series, the system named is α-amylase.
Assay: not given
On the set-up: method as in doi:10.1016/j.molstruc.2022.133650. The following applies: at 108 μM; cited from earlier work.
With `COc1cc(-c2nc3ccccc3[nH]2)ccc1OCC(=O)Nc1ccc(F)cc1` [F], the “% inhibition against α-amylase” value is 45.0 ± 0.8%.

System in a further series: not given
Assay: not given
Conditions: not given
As a reminder, the melting point is the temperature of the solid-liquid transition. Turning to `COc1cc(-c2nc3ccccc3c(=O)[nH]2)ccc1OCC(=O)Nc1ccccc1` [Compound 7a, 2-(2-methoxy-4-(4-oxo-3,4-dihydroquinazolin-2-yl)phenoxy)-N-phenylacetamide], the melting point fell in the range of 192 to 194 °C. In turn, `COc1cc(-c2nc3ccccc3c(=O)[nH]2)ccc1OCC(=O)Nc1ccccc1F` [Compound 7b, N-(2-fluorophenyl)-2-(2-methoxy-4-(4-oxo-3,4-dihydroquinazolin-2-yl)phenoxy)acetamide] registered a melting point of 222 to 225 °C. For `COc1cc(-c2nc3ccccc3c(=O)[nH]2)ccc1OCC(=O)Nc1ccc(F)cc1` [Compound 7c, N-(4-fluorophenyl)-2-(2-methoxy-4-(4-oxo-3,4-dihydroquinazolin-2-yl)phenoxy)acetamide], the melting point lay within 216 to 218 °C. In turn, `COc1cc(-c2nc3ccccc3c(=O)[nH]2)ccc1OCC(=O)Nc1ccccc1Cl` [Compound 7d, N-(2-chlorophenyl)-2-(2-methoxy-4-(4-oxo-3,4-dihydroquinazolin-2-yl)phenoxy)acetamide] registered a melting point of 207 to 209 °C. On the same count and under the same terms, to `COc1cc(-c2nc3ccccc3c(=O)[nH]2)ccc1OCC(=O)Nc1cccc(Cl)c1` [Compound 7e, N-(3-chlorophenyl)-2-(2-methoxy-4-(4-oxo-3,4-dihydroquinazolin-2-yl)phenoxy)acetamide] belongs 203 to 205 °C; to `COc1cc(-c2nc3ccccc3c(=O)[nH]2)ccc1OCC(=O)Nc1ccc(Cl)cc1` [Compound 7f, N-(4-chlorophenyl)-2-(2-methoxy-4-(4-oxo-3,4-dihydroquinazolin-2-yl)phenoxy)acetamide], 211 to 213 °C. `COc1cc(-c2nc3ccccc3c(=O)[nH]2)ccc1OCC(=O)Nc1ccc(Br)cc1` [Compound 7g, N-(4-bromophenyl)-2-(2-methoxy-4-(4-oxo-3,4-dihydroquinazolin-2-yl)phenoxy)acetamide] registered a melting point of 203 to 205 °C. `COc1cc(-c2nc3ccccc3c(=O)[nH]2)ccc1OCC(=O)Nc1ccccc1C` [Compound 7h, 2-(2-methoxy-4-(4-oxo-3,4-dihydroquinazolin-2-yl)phenoxy)-N-(o-tolyl)acetamide] had a melting point of 196 to 198 °C. The compound `COc1cc(-c2nc3ccccc3c(=O)[nH]2)ccc1OCC(=O)Nc1ccc(C)cc1` [Compound 7i, 2-(2-methoxy-4-(4-oxo-3,4-dihydroquinazolin-2-yl)phenoxy)-N-(p-tolyl)acetamide] returned a melting point of 199 to 201 °C.

Regarding `COc1cc(-c2nc3ccccc3c(=O)[nH]2)ccc1OCC(=O)Nc1c(C)cccc1C` [Compound 7j, N-(2,6-dimethylphenyl)-2-(2-methoxy-4-(4-oxo-3,4-dihydroquinazolin-2-yl)phenoxy)acetamide], the melting point was 215 to 217 °C. Same read-out and setting: to `CCc1ccc(NC(=O)COc2ccc(-c3nc4ccccc4c(=O)[nH]3)cc2OC)cc1` [Compound 7k, N-(4-ethylphenyl)-2-(2-methoxy-4-(4-oxo-3,4-dihydroquinazolin-2-yl)phenoxy)acetamide] belongs 195 to 197 °C; to `COc1ccc(NC(=O)COc2ccc(-c3nc4ccccc4c(=O)[nH]3)cc2OC)cc1` [Compound 7l, 2-(2-methoxy-4-(4-oxo-3,4-dihydroquinazolin-2-yl)phenoxy)-N-(4-methoxyphenyl)acetamide], 205 to 207 °C; to `COc1cc(-c2nc3ccccc3c(=O)[nH]2)ccc1OCC(=O)Nc1ccc2ccccc2c1` [Compound 7o, 2-(2-methoxy-4-(4-oxo-3,4-dihydroquinazolin-2-yl)phenoxy)-N-(naphthalen-2-yl)acetamide], 217 to 219 °C. `COc1cc(-c2nc3ccccc3c(=O)[nH]2)ccc1OCC(=O)NCc1ccc(C)cc1` [Compound 7p, 2-(2-methoxy-4-(4-oxo-3,4-dihydroquinazolin-2-yl)phenoxy)-N-(4-methylbenzyl)acetamide] gave a melting point of 191 to 193 °C.

For the compound `COc1cc(-c2nc3ccccc3c(=O)[nH]2)ccc1OCC(=O)NCc1ccc(F)cc1` [Compound 7q, N-(4-fluorobenzyl)-2-(2-methoxy-4-(4-oxo-3,4-dihydroquinazolin-2-yl)phenoxy)acetamide], the melting point fell in the range of 224 to 226 °C.

`COc1cc(-c2nc3ccccc3c(=O)[nH]2)ccc1OCC(=O)NCc1ccccc1` [Compound 7r, N-benzyl-2-(2-methoxy-4-(4-oxo-3,4-dihydroquinazolin-2-yl)phenoxy)acetamide] returned a melting point of 194 to 196 °C.

The target of the next series is T1, α-glucosidase. The series can be described thus: Enzyme kinetic studies (Lineweaver–Burk plot, secondary plot). The format is biochemical. The note with it: Km increased, Vmax unchanged. The method, then: A Lineweaver–Burk plot was generated to identify the type of inhibition and the Michaelis–Menten constant (Km) value was determined from the plot between the reciprocal of the substrate concentration (1/[S]) and reciprocal of enzyme rate (1/V) over various inhibitor concentrations. The experimental inhibitor constant (Ki) value was constructed by secondary plots of the inhibitor concentration [I] versus Km.
For the compound `COc1cc(-c2nc3ccccc3c(=O)[nH]2)ccc1OCC(=O)Nc1ccccc1F` [Compound 7b, N-(2-fluorophenyl)-2-(2-methoxy-4-(4-oxo-3,4-dihydroquinazolin-2-yl)phenoxy)acetamide], the type of inhibition entry was “competitive type; also recorded: competitive inhibition; also recorded: competitive inhibitor”.

Another series concerns breast cancer cell line MCF-7.
Assay: not given
On the set-up: method as in PMID 30366316. The note with it: cited from earlier work.
As to `O=c1c2ccccc2nc(SCc2cn(Cc3ccc(Br)cc3)nn2)n1CCc1ccccc1` [B], the “toxicity against breast cancer cell line MCF-7” value is “no toxicity”.

The next series deals with T1, α-glucosidase. The series can be described thus: α-glucosidase inhibition assay. Format: biochemical.
Conditions: not given
As to `COc1ccc(NC(=O)COc2ccc(-c3nc4ccccc4c(=O)[nH]3)cc2OC)cc1` [Compound 7l, 2-(2-methoxy-4-(4-oxo-3,4-dihydroquinazolin-2-yl)phenoxy)-N-(4-methoxyphenyl)acetamide], the “activity against α-glucosidase under the tested concentration” value (from here on “activity against α-glucosidase”) is listed as “did not show any activity”. For the compound `COc1cc(-c2nc3ccccc3c(=O)[nH]2)ccc1OCC(=O)Nc1ccc(O)cc1` [Compound 7m, N-(4-hydroxyphenyl)-2-(2-methoxy-4-(4-oxo-3,4-dihydroquinazolin-2-yl)phenoxy)acetamide], the “activity against α-glucosidase” value is listed as “did not show any activity”. Regarding `COc1cc(-c2nc3ccccc3c(=O)[nH]2)ccc1OCC(=O)Nc1ccc([N+](=O)[O-])cc1` [Compound 7n, 2-(2-methoxy-4-(4-oxo-3,4-dihydroquinazolin-2-yl)phenoxy)-N-(4-nitrophenyl)acetamide], the “activity against α-glucosidase” value is “did not show any activity”.
